PubChem BioAssay (NCI)
“And” between values parts separate entries of the source, which are not always exact repeats. Equal values may be shown once.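 In this assay, cells in 96-well plates receive the compound at five concentrations for 48 hours. Endpoints are linearly interpolated between the surrounding concentrations. The concentration for 50% growth inhibition is given as GI50. The concentration for full growth arrest is given as TGI.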

Columns and labels:
Assay in all cases: NCI-60 cell line screen, 48 h
PC-3 prostate = tested on: PC-3 prostate
EKVX NSCLC = tested on: EKVX NSCLC
A549 NSCLC = tested on: A549 NSCLC
LOX IMVI melanoma = tested on: LOX IMVI melanoma
KM12 colon = tested on: KM12 colon
TK-10 renal = tested on: TK-10 renal
MDA-MB-231 breast = tested on: MDA-MB-231 breast
OVCAR-4 ovarian = tested on: OVCAR-4 ovarian
SR leukemia = tested on: SR leukemia
HL-60(TB) leukemia = tested on: HL-60(TB) leukemia

| SMILES | GI50 (PC-3 prostate) | TGI (PC-3 prostate) | GI50 (EKVX NSCLC) | TGI (EKVX NSCLC) | GI50 (A549 NSCLC) | TGI (A549 NSCLC) | GI50 (LOX IMVI melanoma) | TGI (LOX IMVI melanoma) | GI50 (KM12 colon) | TGI (KM12 colon) | GI50 (TK-10 renal) | TGI (TK-10 renal) | GI50 (MDA-MB-231 breast) | TGI (MDA-MB-231 breast) | GI50 (OVCAR-4 ovarian) | TGI (OVCAR-4 ovarian) | GI50 (SR leukemia) | TGI (SR leukemia) | GI50 (HL-60(TB) leukemia) | TGI (HL-60(TB) leukemia) |
| --- | --- | --- | --- | --- | --- | --- | --- | --- | --- | --- | --- | --- | --- | --- | --- | --- | --- | --- | --- | --- |
| CCOC(=O)/C(C#N)=C1\SS/C(=C(/C#N)C(=O)OCC)S1 | 19.7 µM | 40.7 µM | 19.6 µM | 50.4 µM | 40 µM | > 100 µM | 13.9 µM | 57.4 µM | 20.1 µM | 41.3 µM | 6.81 µM | 20.3 µM | 14.9 µM | 29.6 µM | 15.1 µM | 29.8 µM | 3.59 µM | > 100 µM | 22.6 µM | 63 µM |
| CCCCCCCCCC(CCCC(O)CC(=O)O)OC1OC(COC2OC(C)C(OC(C)=O)C(O)C2O)C(O)C(O)C1OC1OC(CO)C(O)C(O)C1OC1OC(C)C(OC(=O)CC(C)C)C(O)C1O (configuration not stated) | > 35 µM | > 35 µM | > 35 µM | > 35 µM | > 35 µM | > 35 µM | > 35 µM | > 35 µM | > 35 µM | > 35 µM | > 35 µM | > 35 µM | > 35 µM | > 35 µM | > 35 µM | > 35 µM | > 35 µM | > 35 µM | > 35 µM | > 35 µM |
| O=C(COc1ccc(OCC(=O)N2C(=O)CN(c3ccccc3)C2=S)cc1)N1C(=O)CN(c2ccccc2)C1=S |  | > 100 µM | > 25 µM | > 100 µM | > 25 µM | > 100 µM | 29.6 µM | > 100 µM | > 25 µM | > 100 µM | > 25 µM | > 100 µM | > 25 µM | > 100 µM | > 25 µM | > 100 µM | > 100 µM | > 100 µM |  | > 100 µM |
| ClCc1ccc(Cn2cnc3c(Cl)ncnc32)cc1 | 18 µM | 56.3 µM | 9.68 µM | 19.5 µM | 11.2 µM | 38.3 µM | 5.8 µM | 20.4 µM | 10.3 µM | 30.2 µM | 11.3 µM | 23.6 µM | 10.4 µM | 20.8 µM |  | > 25.7 µM | 0.0902 µM |  | 10.1 µM | 23.1 µM |
| CN1CCN(c2ccc(NC(=O)c3cncnc3Nc3ccc(OCc4cccc(F)c4)c(Cl)c3)cc2)CC1 | 1.78 µM | > 50 µM | 10.9 µM | > 50 µM | 1.51 µM | 5.05 µM | 0.849 µM | 1.61 µM | 2.21 µM | > 50 µM | 22.4 µM | > 50 µM | 0.971 µM | 1.99 µM | 4 µM | > 50 µM | 0.939 µM | 2.46 µM | 1.3 µM | 3.44 µM |
| CN(C)Cc1ccc(C(C)(C)C)cc1-c1cc(C(C)(C)C)ccc1CN(C)C |  | > 100 µM |  | > 100 µM |  | > 100 µM |  | > 100 µM |  | > 100 µM |  | > 100 µM |  | > 100 µM |  | > 100 µM |  | > 100 µM |  | > 100 µM |
| COc1ccc(-c2[nH]nc(N)c2-c2cc(OC)c3c(c2)OCO3)cc1 | 14.3 µM | > 100 µM | 9.09 µM | > 100 µM | 4.73 µM | > 100 µM | 4.86 µM | > 100 µM | 2.35 µM | 31.6 µM | 8.42 µM | 60.1 µM | 5.5 µM | > 100 µM | 12.9 µM | > 100 µM | 1.97 µM | 18.1 µM | 2.89 µM | 10.3 µM |
| CCN(CC)CCC(CNc1ccnc2cc(Cl)ccc12)c1ccccc1 (configuration not stated) | 13.9 µM | 69.9 µM | 28.5 µM | > 100 µM | 11.6 µM | 26.3 µM | 1.77 µM | 5.17 µM | 7.29 µM | 75.1 µM | 2.11 µM | 6.27 µM | 2.18 µM | 15.8 µM | 5.89 µM | 35.7 µM | 2.23 µM | 8.48 µM | 4.22 µM | 29.2 µM |
| COc1ccc2nc3cc([N+](=O)[O-])ccc3c(NNc3ccccc3)c2c1 | 10.4 µM | 40.4 µM and > 100 µM |  | > 100 µM and 71.8 µM |  | 37.8 µM and > 100 µM | 14.5 µM | > 100 µM | 6.25 µM | 19.6 µM and 32.4 µM | 12.1 µM | 30 µM and > 100 µM | 5.69 µM | 30 µM and 54.2 µM | 11.6 µM | 36.1 µM and > 100 µM |  | 61.8 µM |  | 59.8 µM and > 84 µM |
| COc1ccc(C(=O)O[C@H]2[C@H](O[C@H]3[C@@H](O)COC(O[C@H]4C[C@H]5[C@@H]6CC=C7C[C@@H](O)CC[C@]7(C)[C@H]6CC[C@]5(C)[C@H]4[C@H](C)C(=O)CCC(C)C)[C@@H]3OC(C)=O)OC[C@@H](O)[C@@H]2O)c(C)c1 (some centres not stated) | < 0.01 µM | 2.14 µM | 1.26 µM | 26.9 µM | < 0.01 µM | > 100 µM | < 0.01 µM | 0.0173 µM | 0.0674 µM | 21.3 µM | 0.27 µM | 34.8 µM | 0.146 µM | 18.1 µM | 0.717 µM | > 100 µM | < 0.01 µM | > 100 µM | 0.0133 µM | 28.2 µM |
| O=C(Nc1ccccc1C(F)(F)F)c1ccc(NC2=C(Cl)C(=O)N(Cc3ccccc3)C2=O)cc1 | 12.2 µM | > 100 µM | 86.9 µM | > 100 µM | 40.5 µM | > 100 µM | 18.8 µM | > 100 µM | > 100 µM | > 100 µM | 17.6 µM | 52.5 µM | 12.8 µM | 38.4 µM | 33.5 µM | > 100 µM | 1.85 µM | 3.86 µM | 2.96 µM | 17.6 µM |
| Cc1ccc(-c2nc(N3CCNCC3)c3oc(-c4ccccc4)nc3n2)cc1 | 1.7 µM | 3.19 µM | 3.94 µM | > 100 µM | 1.66 µM | 3.13 µM | 1.88 µM | 3.43 µM | 1.85 µM | 3.51 µM | 1.68 µM | 3.09 µM | 1.62 µM | 3.06 µM | 1.89 µM | 4.06 µM | 1.26 µM | 3.24 µM | 1.43 µM | 3.09 µM |
